Laboratory results: patent US9364467B2 (Salix Pharmaceuticals, Ltd, priority 2012, dated 2016)
Read-outs that look alike come from different tables or passages of the source.

Columns and labels:
S. aureus = experiment: In vitro activity (MIC) against S. aureus strains; conditions: Staphylococcus aureus
[1] = test system: Enterobacteriaceae spp. strains; experiment: In vitro activity (MIC) against Enterobacteriaceae spp. strains

CO[C@H]1/C=C/O[C@@]2(C)Oc3c(C)c(O)c4c(O)c(c5c(nc6cc(C)ccn65)c4c3C2=O)NC(=O)/C(C)=C\C=C\[C@H](C)[C@H](O)[C@@H](C)[C@@H](O)[C@@H](C)[C@H](OC(C)=O)[C@@H]1C [Rifaximin, reference compound]
0.06 mg/L: MIC (S. aureus; strain S. aureus 237) | MIC (S. aureus; strain S. aureus 436)
0.25 mg/L: MIC (S. aureus; strain S. aureus 234) | MIC (S. aureus; strain S. aureus 272) | MIC (S. aureus; strain S. aureus 345) | MIC (S. aureus; strain S. aureus 408)
0.015 mg/L: MIC (S. aureus; strain ATCC S. aureus 29213)
16 mg/L: MIC ([1]; Citrobacter freundii, C. freundii 57) | MIC ([1]; Escherichia coli, ATCC E. Coli 25922) | MIC ([1]; Escherichia coli, E. coli 15) | MIC ([1]; Escherichia coli, E. coli 41) | MIC ([1]; Escherichia coli, E. coli 43) | MIC ([1]; Escherichia coli, E. coli 44) | MIC ([1]; Escherichia coli, E. coli 46) | MIC ([1]; Escherichia coli, E. coli 90) | MIC ([1]; Escherichia coli, E. coli 102) | MIC ([1]; Escherichia coli, E. coli 117) | MIC ([1]; Morganella morganii, M. morganii 42) | MIC ([1]; Morganella morganii, M. morganii 923) | MIC ([1]; Proteus mirabilis, P. mirabilis 470) | MIC ([1]; Proteus mirabilis, P. mirabilis 473) | MIC ([1]; Proteus mirabilis, P. mirabilis 983) | MIC ([1]; Proteus mirabilis, P. mirabilis 993) | MIC ([1]; Providencia stuartii, P. stuartii 299) | MIC ([1]; Providencia stuartii, P. stuartii 306)
8 to 32 mg/L: Range (MIC) ([1]; Enterobacteriaceae spp. strains)
32 mg/L: MIC [1] | MIC50 [1] | MIC90 [1] | MIC ([1]; Citrobacter freundii, C. freundii 58) | MIC ([1]; Citrobacter freundii, C. freundii 65) | MIC ([1]; Citrobacter freundii, C. freundii 68) | MIC ([1]; Citrobacter freundii, C. freundii 69) | MIC ([1]; Citrobacter freundii, C. freundii 1070) | MIC ([1]; Citrobacter freundii, C. freundii 1073) | MIC ([1]; Citrobacter freundii, C. freundii 1075) | MIC ([1]; Enterobacter cloacae, E. cloacae 1) | MIC ([1]; Enterobacter cloacae, E. cloacae 3) | MIC ([1]; Enterobacter cloacae, E. cloacae 8) | MIC ([1]; Enterobacter cloacae, E. cloacae 12) | MIC ([1]; Enterobacter cloacae, E. cloacae 13) | MIC ([1]; Enterobacter cloacae, E. cloacae 14) | MIC ([1]; Enterobacter cloacae, E. cloacae 16) | MIC ([1]; Enterobacter cloacae, E. cloacae 20) | MIC ([1]; Enterobacter cloacae, E. cloacae 321) | MIC ([1]; Enterobacter cloacae, E. cloacae 348) | MIC ([1]; Enterobacter cloacae, E. cloacae 349) | MIC ([1]; Enterobacter cloacae, E. cloacae 358) | MIC ([1]; Enterobacter cloacae, E. cloacae 367) | MIC ([1]; Enterobacter cloacae, E. cloacae 369) | MIC ([1]; Escherichia coli, E. coli 6) | MIC ([1]; Escherichia coli, E. coli 34) | MIC ([1]; Escherichia coli, E. coli 47) | MIC ([1]; Escherichia coli, E. coli 48) | MIC ([1]; Escherichia coli, E. coli 49) | MIC ([1]; Escherichia coli, E. coli 56) | MIC ([1]; Escherichia coli, E. coli 62) | MIC ([1]; Escherichia coli, E. coli 92) | MIC ([1]; Escherichia coli, E. coli 93) | MIC ([1]; Escherichia coli, E. coli 95) | MIC ([1]; Escherichia coli, E. coli 97) | MIC ([1]; Escherichia coli, E. coli 100) | MIC ([1]; Escherichia coli, E. coli 103) | MIC ([1]; Escherichia coli, E. coli 109) | MIC ([1]; Escherichia coli, E. coli 110) | MIC ([1]; Escherichia coli, E. coli 112) | MIC ([1]; Escherichia coli, E. coli 113) | MIC ([1]; Escherichia coli, E. coli 118) | MIC ([1]; Escherichia coli, E. coli 120) | MIC ([1]; Escherichia coli, E. coli 140) | MIC ([1]; Escherichia coli, E. coli 171) | MIC ([1]; Escherichia coli, E. coli 342) | MIC ([1]; Escherichia coli, E. coli 343) | MIC ([1]; Escherichia coli, E. coli 345) | MIC ([1]; Escherichia coli, E. coli 349) | MIC ([1]; Escherichia coli, E. coli 351) | MIC ([1]; Klebsiella aerogenes, E. aerogenes 235) | MIC ([1]; Klebsiella aerogenes, E. aerogenes 281) | MIC ([1]; Klebsiella aerogenes, E. aerogenes 290) | MIC ([1]; Klebsiella aerogenes, E. aerogenes 1023) | MIC ([1]; Klebsiella aerogenes, E. aerogenes 1030) | MIC ([1]; Klebsiella aerogenes, E. aerogenes 1031) | MIC ([1]; Klebsiella oxytoca, K. oxytoca 4) | MIC ([1]; Klebsiella oxytoca, K. oxytoca 18) | MIC ([1]; Klebsiella oxytoca, K. oxytoca 479) | MIC ([1]; Klebsiella oxytoca, K. oxytoca 499) | MIC ([1]; Klebsiella pneumoniae, K. pneumoniae 17) | MIC ([1]; Klebsiella pneumoniae, K. pneumoniae 19) | MIC ([1]; Klebsiella pneumoniae, K. pneumoniae 76) | MIC ([1]; Klebsiella pneumoniae, K. pneumoniae 80) | MIC ([1]; Klebsiella pneumoniae, K. pneumoniae 91) | MIC ([1]; Klebsiella pneumoniae, K. pneumoniae 1064) | MIC ([1]; Morganella morganii, M. morganii 48) | MIC ([1]; Morganella morganii, M. morganii 50) | MIC ([1]; Morganella morganii, M. morganii 57) | MIC ([1]; Morganella morganii, M. morganii 67) | MIC ([1]; Morganella morganii, M. morganii 101) | MIC ([1]; Morganella morganii, M. morganii 105) | MIC ([1]; Morganella morganii, M. morganii 108) | MIC ([1]; Morganella morganii, M. morganii 458) | MIC ([1]; Morganella morganii, M. morganii 461) | MIC ([1]; Morganella morganii, M. morganii 462) | MIC ([1]; Morganella morganii, M. morganii 932) | MIC ([1]; Morganella morganii, M. morganii 935) | MIC ([1]; Proteus mirabilis, P. mirabilis 465) | MIC ([1]; Proteus mirabilis, P. mirabilis 466) | MIC ([1]; Proteus mirabilis, P. mirabilis 469) | MIC ([1]; Proteus mirabilis, P. mirabilis 477) | MIC ([1]; Proteus mirabilis, P. mirabilis 479) | MIC ([1]; Proteus mirabilis, P. mirabilis 480) | MIC ([1]; Proteus mirabilis, P. mirabilis 489) | MIC ([1]; Proteus mirabilis, P. mirabilis 928) | MIC ([1]; Proteus mirabilis, P. mirabilis 972) | MIC ([1]; Proteus mirabilis, P. mirabilis 985) | MIC ([1]; Proteus mirabilis, P. mirabilis 987) | MIC ([1]; Proteus mirabilis, P. mirabilis 990) | MIC ([1]; Proteus mirabilis, P. mirabilis 991) | MIC ([1]; Proteus mirabilis, P. mirabilis 995) | MIC ([1]; Proteus mirabilis, P. mirabilis 996) | MIC ([1]; Proteus mirabilis, P. mirabilis 997) | MIC ([1]; Providencia stuartii, P. stuartii 94) | MIC ([1]; Providencia stuartii, P. stuartii 301) | MIC ([1]; Providencia stuartii, P. stuartii 312) | MIC ([1]; Providencia stuartii, P. stuartii 459) | MIC ([1]; S. odorifera 59) | MIC ([1]; Serratia marcescens, S. marcescens 38) | MIC ([1]; Serratia marcescens, S. marcescens 45) | MIC ([1]; Serratia marcescens, S. marcescens 59) | MIC ([1]; Serratia marcescens, S. marcescens 63) | MIC ([1]; Stenotrophomonas maltophilia, S. maltophilia 1203) | MIC ([1]; Stenotrophomonas maltophilia, S. maltophilia 1208)
8 mg/L: MIC ([1]; Escherichia coli, E. coli 37) | MIC ([1]; Escherichia coli, E. coli 71) | MIC ([1]; Escherichia coli, E. coli 96) | MIC ([1]; Morganella morganii, M. morganii 453) | MIC ([1]; Morganella morganii, M. morganii 1006) | MIC ([1]; Proteus mirabilis, P. mirabilis 471) | MIC ([1]; Proteus mirabilis, P. mirabilis 472) | MIC ([1]; Proteus mirabilis, P. mirabilis 988) | MIC ([1]; Proteus mirabilis, P. mirabilis 998)
1 mg/L: MIC (S. aureus; strain S. aureus 215) | MIC (S. aureus; strain S. aureus 236) | MIC (S. aureus; strain S. aureus 267) | MIC (S. aureus; strain S. aureus 327) | MIC (S. aureus; strain S. aureus 329) | MIC (S. aureus; strain S. aureus 339)
0.03 mg/L: MIC (S. aureus; strain S. aureus 238) | MIC (S. aureus; strain S. aureus 279)
0.12 mg/L: MIC (S. aureus; strain S. aureus 253) | MIC (S. aureus; strain S. aureus 409)
0.5 mg/L: MIC (S. aureus; strain S. aureus 246) | MIC (S. aureus; strain S. aureus 252) | MIC (S. aureus; strain S. aureus 328) | MIC (S. aureus; strain S. aureus 355) | MIC (S. aureus; strain S. aureus 406) | MIC (S. aureus; strain S. aureus 416) | MIC (S. aureus; strain S. aureus 425) | MIC (S. aureus; strain S. aureus 475)
